Laboratory results reported in patent US20130280764A1, “METHOD OF IMPROVING THE ACTIVITY OF CELLULASE ENZYME MIXTURES IN THE SACCHARIFICATION (LIGNO)CELLULOSIC MATERIAL” (DYADIC INTERNATIONAL (USA) LTD., priority 2012, published 2013).

Assays:
Format in all cases: biochemical, Myceliophthora thermophila C1
M. thermophila C1 BGl1 = assay: Cellobiase activity of Bgl1 with or without gluconolactone; details: gluconolactone above 0.1 g/L; pH 4.5, 5.0 and 6.0
Experimental: (§1) Purified Bgl1, Eg5, Eg6, CBH1, CBH2, and CBH4 from M. thermophila C1 were used to determine the level of inhibition by gluconolactone. For Bgl1, cellobiase activity was assayed by the following procedure: 0.4 ml of 2.5 mM cellobiose solution (in 0.1 M Na-acetate with pH 4.5, 5.0 or 6.0) was incubated during 5 min at 50° C. (with or without gluconolactone), then 0.1 ml of the enzyme (bgl1 from C1) solution was added (the dilution of the enzyme chosen at such a concentration in order to achieve 10% of cellobiose hydrolysis in 15 min, which is 0.072 g/L of glucose released). After 5, 10 and 15 min of incubation at […], 0.1 ml of the reaction mixture was sampled and glucose concentration was determined immediately by the glucose oxidase-peroxidase assay (Megazymes). Gluconolactone (Sigma-Aldrich) was added in the reaction mixture at concentrations between 0-10 g/L (0, 0.04, 0.08, 0.1, 0.2, 0.3, 0.6, 0.8, 1, 2, 4, 5, 8 and 10 g/L).
(§2) For C1 cellulases Eg2, Eg5, Eg6, CBH1, CBH2, CBH4, the effect of 10 g/L gluconolactone on the saccharification of microcrystalline cellulose (“MCC”) at 50° C. was determined after 72 hrs.

EG2 = assay: Saccharification of microcrystalline cellulose by purified cellulase with gluconolactone; details: 10 g/L gluconolactone; MCC, 50° C., 72 hrs
Experimental: as §1, §2

CBH1 = assay: as above; details: 10 g/L gluconolactone; MCC, 50° C., 72 hrs
Experimental: as §1, §2

EG5 = assay: as above; details: 10 g/L gluconolactone; MCC, 50° C., 72 hrs
Experimental: as §1, §2

CBH2 = assay: as above; details: 10 g/L gluconolactone; MCC, 50° C., 72 hrs
Experimental: as §1, §2

CBH4 = assay: as above; details: 10 g/L gluconolactone; MCC, 50° C., 72 hrs
Experimental: as §1, §2

inhibition of cellobiase activity (M. thermophila C1 BGl1): completely inhibited | Remaining activity (EG2): 28% | Remaining activity (CBH1): 14% | Remaining activity (EG5): 65% | Remaining activity (CBH2): 13% | Remaining activity (CBH4): 33%
Structure (SMILES): O=C1O[C@H](CO)[C@@H](O)[C@H](O)[C@H]1O [gluconolactone]
